Series [1] concerns HepG2. Kind of series: Antiproliferative activity against human HepG2 cells by MTT assay. It counts as functional, cell-based. (Tetrazolium dyes change colour on reduction, which living cells bring about.)
The nature of series [2]: Antiproliferative activity against human AC16 cells by MTT assay. It counts as cell-based.
Series [3] concerns HepG2. Kind of series: Antiproliferative activity against human HepG2 cells after 48 hrs by MTT assay. To be noted: HepG2, 48 h. It counts as functional, cell-based.
Series [4] in a line: Antiproliferative activity against human HepG2/ADM cells by MTT assay. It counts as functional, cell-based.
Series [5] in a line: Selectivity index, ratio of IC50 for human AC16 cells to IC50 for human HepG2 cells. Conditions: AC16 cells and HepG2 cells, read-out: Ratio IC50. It counts as toxicity.
Series [6] can be described thus: Cytotoxic activity against human AC16 cells assessed as cell swelling at 1 uM after 24 hrs by phase contrast microscopic method. It counts as cell-based.
A short description of series [7]: Cytotoxic activity against human AC16 cells assessed as cell detachment from substratum at 1 uM after 24 hrs by phase contrast microscopic method. It counts as cell-based.
A short description of series [8]: Toxicity in ip dosed Kunming mouse assessed as mortality. It counts as organism-based. Conditions: in vivo.
Series [9] has as its system HepG2. The series is described as follows: Inhibition of ROS generation in human HepG2 cells at 1 uM after 2 hrs by DCFH-DA staining based method. It counts as functional, cell-based.
For another series, the species on record is Homo sapiens. The series is described as follows: Cytoprotective activity against H2O2-induced oxidative damage in human AC16 cells at 1 uM preincubated for 30 mins followed by H2O2 addition and measured after 6 hrs. It counts as functional, cell-based.

The values below come from ChEMBL document CHEMBL4265904, “Hybrids of arenobufagin and benzoisoselenazol reducing the cardiotoxicity of arenobufagin” (Bioorg Med Chem Lett, 2018).

Activity calls are given as the source filed them. The rule behind the calls is not given here.

As a reminder, the IC50 is the concentration needed to halve the response being measured. As usually defined, the LD50 is the dose at which mortality reaches 50%. With `C[C@]12CC[C@H](O)C[C@H]1CC[C@@H]1[C@@H]2[C@H](O)C(=O)[C@]2(C)[C@@H](c3ccc(=O)oc3)CC[C@]12O`, the half-maximal inhibitory concentration (IC50) in the series on HepG2 [1] was 20 nM; in series [2], 0.005 µM; with HepG2 [3], 0.1 to 10 nM; in series [4] it was 0.056 µM. The selectivity ratio in series [5] is 0.25. In addition, the Activity entry in series [6] and in series [7] was “Toxic” throughout. Further, the LD50 in [8] stood at 20 mg/kg.
For `COc1ccc2c(=O)n([C@@H](Cc3ccccc3)C(=O)O[C@H]3CC[C@@]4(C)[C@H](CC[C@@H]5[C@@H]4[C@H](O)C(=O)[C@]4(C)[C@@H](c6ccc(=O)oc6)CC[C@]54O)C3)[se]c2c1`, the IC50 stood at 305 nM with HepG2 [1], 2.2 µM in series [2] and 5.86 µM in series [4]. Besides, the selectivity ratio in [5] turned out to be 7.21. Further, the Activity result in series [6] and in [7] was “Non-Toxic” throughout. For the same compound, the inhibition entry in the series with HepG2 [9] was “Active”. The outcome in the series listed under Homo sapiens was Active.
On to `O=c1c2ccccc2[se]n1-c1ccccc1`, for which the outcome in the series filed under Homo sapiens was Active.
As for `CC[C@H](C)[C@@H](C(=O)O[C@H]1CC[C@@]2(C)[C@H](CC[C@@H]3[C@@H]2[C@H](O)C(=O)[C@]2(C)[C@@H](c4ccc(=O)oc4)CC[C@]32O)C1)n1[se]c2cc(OC)ccc2c1=O`, the half-maximal inhibitory concentration (IC50) with HepG2 [1] was determined as 14500 nM; in [2], 15 µM; in [4], 36.7 µM. In addition, in [5], the selectivity ratio is 1.03.
For `Cc1ccc2c(=O)n(CC(=O)O[C@H]3CC[C@@]4(C)[C@H](CC[C@@H]5[C@@H]4[C@H](O)C(=O)[C@]4(C)[C@@H](c6ccc(=O)oc6)CC[C@]54O)C3)[se]c2c1`, in that order: 607 nM, 2.13 µM, 2.45 µM and 3.51.
Take `C[C@]12CC[C@H](OC(=O)[C@H](Cc3ccccc3)n3[se]c4ccccc4c3=O)C[C@H]1CC[C@@H]1[C@@H]2[C@H](O)C(=O)[C@]2(C)[C@@H](c3ccc(=O)oc3)CC[C@]12O`: the IC50 in the series with HepG2 [1] came out at 339 nM; in series [2], 3.21 µM; in series [4], 5.59 µM. Besides, the selectivity ratio in [5] was determined as 9.47. Also, the Activity result in series [6] and in [7] was “Non-Toxic” each time. The inhibition entry with HepG2 [9] is “Active”. In the series filed under Homo sapiens, the result was Active.
Regarding `Cc1ccc2c(=O)n([C@@H](Cc3ccccc3)C(=O)O[C@H]3CC[C@@]4(C)[C@H](CC[C@@H]5[C@@H]4[C@H](O)C(=O)[C@]4(C)[C@@H](c6ccc(=O)oc6)CC[C@]54O)C3)[se]c2c1`, the IC50 was found to be 489 nM with HepG2 [1], 3.57 µM in [2] and 7.94 µM in series [4]. Moreover, the selectivity ratio in series [5] amounted to 7.3. The Activity result in series [6] and in [7] was “Non-Toxic” in each case. Also, the result in the series filed under Homo sapiens was Active.
Regarding `C[C@]12CC[C@H](OC(=O)[C@H](Cc3ccccc3)n3[se]c4cc(C(F)(F)F)ccc4c3=O)C[C@H]1CC[C@@H]1[C@@H]2[C@H](O)C(=O)[C@]2(C)[C@@H](c3ccc(=O)oc3)CC[C@]12O`, the IC50 in the series on HepG2 [1] is 265 nM; in series [2], 4.3 µM; in series [4], 9.74 µM. The selectivity ratio in series [5] was determined as 16.2. Moreover, the Activity result in series [6] and in [7] was “Non-Toxic” throughout. Moreover, the inhibition result in the series on HepG2 [9] is “Active”. Also, the outcome in the series listed under Homo sapiens was Active.
